Experiment [1] deals with PKM2. On the set-up: method as in PMID 20005212. To be noted: high-throughput screen; cited from earlier work.
A further experiment relates to tumor cell. To be noted: cited from earlier work.
In a further experiment the test system is VDAC3. The experiment can be described thus: VDAC3 protein level (western blot) in HCT116 cells. It is filed as cell-based, human. To be noted: 10 μM, 8 h, HCT116. The text has this:
HCT116 cell lysates were subject to immunoprecipitation with control IgG and anti-VDAC3 antibodies. d, e In vitro binding assay of purified His-tagged-PKM2 and GST-tagged-VDAC3. f K433E enhanced the interaction of PKM2 and VDAC3. Stagged-WT PKM2, a succinylation mimic K433E and a succinylation null mutant K433R and flag-VDAC3 were co-transfected into HCT116 cells for Stag bead pull down that specially pulls down Stagged proteins. g Glucose starvation enhanced the interaction of PKM2 and VDAC3. […]
Fig. 6 Compound 8 blocks PKM2 mitochondrial translocation under nutritional stress and inhibits tumor growth in vivo. a Compound 8 blocks glucose starvation induced PKM2 mitochondrial translocation. […] HCT116 cells were transfected with HA-tagged PKM2, cells were harvested and subjected to stag pull down after 8 h 20 µM compound 8 treatment. c Compound 8 induces VDAC3 for degradation. cells were harvested and evaluated VDAC3 protein levels after 8 h 10 or 20 µM compound 8 treatment. d, e Compound 8 caused a decrease in the rate of NADH oxidation. […] NAD/NADH ratios in HCT116 cell lysates were evaluated by LC–MS. f Compound 8 inhibited ATP production in HCT116 cells. g The tumor volume (n = 7) of HCT116 xenografts from mice with intraperitoneal injection of compound 8 and vehicle control […]

For another experiment, the target named is T1, PKL (Homo sapiens, UniProt P30613).
T1 construct: purchased Sino Biological Inc
The experiment can be described thus: fluorescent PK-LDH coupled assay, PKL. It is filed as biochemical. The method, then: (§1) Human cDNA for PKM2, PKM1, and VDAC3 were separately cloned into a pET28a (+) and pGEX-4T-1 vector with an N-terminal His-tag and N-terminal GST-tag and purified from the Escherichia coli strain BL21 (Invitrogen) using Ni–agarose beads and GST agarose beads (Qiagen) as described previously. PKL was purchased from Sino Biological Inc. in China.
(§2) Pyruvate kinase activity was measured with a fluorescent pyruvate kinase–lactate dehydrogenase coupled assay as described previously. All compounds were tested in a kinetic mode by coupling the generation of pyruvate by pyruvate kinase to the depletion of NADH through lactate dehydrogenase. For PKM2, 40 μL of buffer (50 mM Tris–HCl, pH 7.5, 10 mM KCl, 5 mM MgCl2), 1 μL of compound and 5 μL of enzyme solution were dispensed into Corning black solid 96-well plates and incubated for 15 min. Totally, 55 μL of substrate mix (final concentration, 0.5 mM PEP, 4.0 mM ADP, 0.12 mM NADH, 0.25 mM FBP, and 1 unit LDH) were then added, and the plates were placed in a FlexStation3 (Molecular Devices), followed by determination of NADH fluorescence at 30 s exposure intervals for 3–6 min. Data were collected on a FlexStation3.

The next experiment deals with HCT116 cells. The experiment can be described thus: cell viability test, HCT116. It is filed as cell-based, human. To be noted: Homo sapiens, HCT-116, 48 h, read-out: IC50 (HCT116). The protocol: (§3) We assessed the anti-tumor effects of compound 8 by evaluation of cancer cell viability. Compound 8 reduced cell viability with an IC50 of about 5 µM in MTT reduction assays in HCT116, MCF7, and H1299 cells (Table 2). […] To determine whether cancer cell death brought about by compound 8 is PKM2 dependent, PKM2 was knocked down in HCT116 cells using two different shRNA sequences that specifically targeted exon 10 without interfering with PKM1 expression. Compound 8 is an inhibitor which causes a loss of function of PKM2. If PKM2 is a specially targeted by compound 8, its knockdown should render cells more vulnerable to compound 8-mediated PKM2 inhibition since shRNA and compound 8 work synergistically by reducing the intracellular drug target concentration.
(§4) Cells were seeded in 96-well plates at 5000 cells/well in DMEM media overnight. Cells were treated with different concentrations of test compound for 48 h at 37 °C in 5% CO2. Cell viability was assayed with the MTS assay (Promega) and trypan blue staining according to the manufacturer’s instructions.

The next experiment deals with T2, PKM1 (Homo sapiens, UniProt P14618).
T2 construct: His-tag (N); made in house; host or cells: Escherichia coli BL21
The experiment can be described thus: fluorescent PK-LDH coupled assay, PKM1. It is filed as biochemical. The protocol:
as §1, §2

In experiment [2] the target is PKM2 (Homo sapiens, UniProt P14618). The experiment can be described thus: fluorescent pyruvate kinase-lactate dehydrogenase (PK-LDH) coupled assay, PKM2. On the set-up: His-tag (N); made in house; host or cells: Escherichia coli BL21. It is filed as biochemical. The method, then: A random screening of an in-house small molecule library (~1000 total molecules) was undertaken to identify new PKM2 modulators, which can block the interaction of PKM2 and VDAC3. The activity of these test compounds was assessed with a fluorescent PK-LDH coupled assay by a previously reported method (Supplementary Figure S4a)[37]. […] We undertook structural optimization by chemical modification. We designed new compounds utilizing a methyl group instead of the NP-1 chlorine moiety. Synthesis of target compounds was carried out according to the six-step protocol outlined in Supplementary Figure S4d, which was based on a previously described procedure[39],[40].
as §1, §2

A further experiment has as its system MCF7 cells. Nature of the experiment: cell viability test, MCF7. It is filed as cell-based. To be noted: Homo sapiens, MCF7, 48 h, read-out: IC50 (MCF7). The protocol: as §3, §4
For a further experiment, the system named is H1299 cells. Nature of the experiment: cell viability test, H1299. To be noted: Homo sapiens, NCI-H1299, 48 h, read-out: IC50 (H1299). It is filed as cell-based. The protocol: as §3, §4
Experiment [3] has as its system PKM2 mitochondrial translocation. The experiment can be described thus: PKM2 mitochondrial translocation (fractionation, western blot) in HCT116 cells. It is filed as cell-based, human. To be noted: for PKM2 mitochondrial translocation: HCT116, Supplementary Figure S1a. The protocol:
Fig. 6 Compound 8 blocks PKM2 mitochondrial translocation under nutritional stress and inhibits tumor growth in vivo. a Compound 8 blocks glucose starvation induced PKM2 mitochondrial translocation. Isolation of mitochondria and immunoblot of PKM2, tubulin and Tom 40 were carried out with or without compound 8 treatment. b Compound 8 disrupts interaction of PKM2 and VDAC3. HCT116 cells were transfected with HA-tagged PKM2, cells were harvested and subjected to stag pull down after 8 h 20 µM compound 8 treatment. c Compound 8 induces VDAC3 for degradation. cells were harvested and evaluated VDAC3 protein levels after 8 h 10 or 20 µM compound 8 treatment. d, e Compound 8 caused a decrease in the rate of NADH oxidation. After 8 h of treatment with 20 µM compound 8, HCT116 cells mitochondria were isolated for NADH oxidation assays. NAD/NADH ratios in HCT116 cell lysates were evaluated by LC–MS. f Compound 8 inhibited ATP production in HCT116 cells. g The tumor volume (n = 7) of HCT116 xenografts from mice with intraperitoneal injection of compound 8 and vehicle control
HCT116 cells were harvested and washed two times with cold PBS. Cells were then homogenized in a buffer (220 mM mannitol, 70 mM sucrose, 2 mM EGTA, 5 mM MOPS-Tris pH 7.4, 2 mM Taurine, 0.2% BSA). The homogenate was spun for 5 min at 800g.The supernatant containing the cytoplasmic and mitochondrial fractions were transferred to a fresh tube and spun for 5 min at 12,000g. The pellet contained the mitochondrial fraction and the supernatant contained the cytoplasmic fraction.
Cells were lysed in buffer containing 50 mM Tris pH8.0, 2 mM EDTA, 150 mM NaCl, 0.5% Nonidet P-40, 10% glycerol and protease inhibitor PMSF. Western blot analysis was carried out based on standard methods. The following commercial antibodies were used as probes: anti-Flag antibody (Sigma, F3165), anti-HA antibody (Sigma, H3663), anti-α-Tubulin (EasyBio, BE0026–100), anti-PKM2 (RuiYingBio, RLT3777), anti-TOM 40 (Santa Cruz sc-365467), anti-succinyllysine antibody (PTM BIO PTM-901), anti-GAPDH (SanJian).

The next experiment deals with PKM2 succinylation. To be noted: 100 μM, 10 h, HCT116.

Where two headings read alike, the source gives them in different places. Peptide text beside a SMILES is read from it. * marks the point of attachment. Cbz = O=C(OCc1ccccc1)*

Sequence of PKM2 (Homo sapiens, UniProt P14618) (P14618 whole entry): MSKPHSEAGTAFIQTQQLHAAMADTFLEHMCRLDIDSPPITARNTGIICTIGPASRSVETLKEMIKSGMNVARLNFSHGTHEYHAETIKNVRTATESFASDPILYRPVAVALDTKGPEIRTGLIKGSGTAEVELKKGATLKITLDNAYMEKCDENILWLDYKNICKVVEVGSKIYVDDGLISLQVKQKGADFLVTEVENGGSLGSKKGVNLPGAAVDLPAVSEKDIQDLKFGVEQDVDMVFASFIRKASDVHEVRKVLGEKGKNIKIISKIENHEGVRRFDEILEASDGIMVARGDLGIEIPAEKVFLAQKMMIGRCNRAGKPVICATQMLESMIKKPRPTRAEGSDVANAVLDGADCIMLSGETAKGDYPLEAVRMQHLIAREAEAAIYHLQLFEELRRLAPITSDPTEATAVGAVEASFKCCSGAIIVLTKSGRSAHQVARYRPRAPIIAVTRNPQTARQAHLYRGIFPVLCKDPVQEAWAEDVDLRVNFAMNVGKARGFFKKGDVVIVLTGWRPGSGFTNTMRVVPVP
T2 sequence (P14618 1-531 isoform P14618-2): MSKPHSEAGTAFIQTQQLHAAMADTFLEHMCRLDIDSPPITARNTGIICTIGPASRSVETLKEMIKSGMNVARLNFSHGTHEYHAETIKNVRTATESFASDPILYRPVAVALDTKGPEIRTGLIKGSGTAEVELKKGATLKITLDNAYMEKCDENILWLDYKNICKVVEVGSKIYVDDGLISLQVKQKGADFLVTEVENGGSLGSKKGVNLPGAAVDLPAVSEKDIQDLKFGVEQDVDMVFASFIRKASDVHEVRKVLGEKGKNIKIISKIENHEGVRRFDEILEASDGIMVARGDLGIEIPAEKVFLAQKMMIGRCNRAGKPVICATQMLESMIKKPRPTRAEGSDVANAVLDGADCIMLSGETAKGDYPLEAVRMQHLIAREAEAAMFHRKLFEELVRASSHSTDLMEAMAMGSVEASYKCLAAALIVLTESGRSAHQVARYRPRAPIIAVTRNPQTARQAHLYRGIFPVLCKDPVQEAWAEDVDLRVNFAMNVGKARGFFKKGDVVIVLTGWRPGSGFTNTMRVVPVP
T1 sequence (P30613 1-543 isoform P30613-2, species assumed): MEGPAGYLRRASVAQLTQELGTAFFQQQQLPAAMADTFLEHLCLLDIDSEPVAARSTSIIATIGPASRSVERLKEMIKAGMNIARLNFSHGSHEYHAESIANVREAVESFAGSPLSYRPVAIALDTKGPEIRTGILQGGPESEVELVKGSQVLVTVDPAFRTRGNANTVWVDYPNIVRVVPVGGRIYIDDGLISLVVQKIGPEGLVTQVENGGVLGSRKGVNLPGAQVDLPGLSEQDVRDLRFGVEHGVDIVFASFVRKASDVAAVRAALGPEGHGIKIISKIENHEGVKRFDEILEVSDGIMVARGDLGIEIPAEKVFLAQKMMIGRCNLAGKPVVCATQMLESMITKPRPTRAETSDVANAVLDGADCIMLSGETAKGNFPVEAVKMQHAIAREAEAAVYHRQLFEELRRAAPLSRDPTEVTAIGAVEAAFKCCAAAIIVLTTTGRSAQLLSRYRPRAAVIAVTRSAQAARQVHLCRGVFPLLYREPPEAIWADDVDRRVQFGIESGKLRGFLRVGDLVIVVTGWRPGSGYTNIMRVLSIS
Method for PKM2 succinylation: Mitochondria and nuclear fractions were prepared from HCT116 cells under glucose starvation for 10 h. Immunofluorescence analysis was carried out after 10 h of glucose starvation. […] Analysis of PKM2 succinylation in whole-cell extracts prepared from HCT116 cells treated with increasing concentrations of glucose (0, 5, and 25 mM) or SIRT5 overexpression. Lysates prepared from these cells were pulled down with Flag beads and analyzed with antibody to succinylated lysine. d Effect of glucose starvation on endogenous PKM2 succinylation in cells. Analysis of PKM2 succinylation in whole-cell extracts prepared from HCT116 cells treated with increasing concentrations of glucose (0 and 25 mM). […] HCT116 cells were transfected with expression constructs of GFP-tagged vector control GFP-SIRT5. After 10 h glucose starvation, western blot analysis of cytosolic and mitochondrial fractions was performed to evaluate translocation of PKM2 from the cytosolic compartment to the mitochondria. […] 5000 HCT116 cells stably infected with Flag-PKM2 or Flag-PKM2 K433E virus were seeded into 96-well plates and live cell counts were measured in a blood cell counting chamber with trypan blue staining.

Regarding `Cc1ccc(C)n1-c1ccc(O)c(C(=O)O)c1` [Compound 3], in the experiment on PKM2 [1], the PKM2 inhibition entry is “inhibits PKM2 activity at micromolar concentrations”. The “suppression of tumor cell proliferation” value in the experiment with tumor cell was “little suppression of tumor cell proliferation below 200 µM”.

For the molecule `CC(C)C[C@@H](C=O)NC(=O)[C@H](CC(C)C)NC(=O)[C@H](CC(C)C)NC(=O)OCc1ccccc1` [MG132, reference compound] (Cbz-Leu-Leu-Leu-aldehyde), the VDAC3 protein level entry in the experiment with VDAC3 is “upregulated VDAC3”.

For `CC1=C(COP(N)(=O)N(CCCl)CCCl)C(=O)c2ccccc2C1=O` (stereo not drawn) [NP-1], the IC50 against PKL came out at 69.6 ± 6.26 µM; with HCT116 cells it was 14.3 ± 3.57 µM; against PKM1 it was 13.7 ± 1.14 µM; against PKM2 [2], 2.93 ± 0.77 µM; in the experiment on MCF7 cells, 17.5 ± 6.34 µM; with H1299 cells it was 8.17 ± 1.92 µM. The “PKM2 inhibitory activity compared with shikonin” value on PKM2 [2] (Supplementary Figure S4b) was “more powerful than shikonin”. Further, the “selectivity for PKM2 over PKM1 and PKL” value at PKM2 [2] (Supplementary Figure S4c) was “highly selective, dose-dependent inhibition of PKM2 with less inhibition of PKM1 and PKL”.

As for `CC(C)=CC[C@@H](O)C1=CC(=O)c2c(O)ccc(O)c2C1=O` [Shikonin, reference compound], the IC50 turned out to be 39.2 ± 6.53 µM on PKL (PK-LDH coupled assay, read-out: IC50 (PKL)) and 13 ± 3.37 µM on PKM1 (recombinant enzyme, PK-LDH coupled assay, read-out: IC50 (PKM1)). Further, the “induction of cell apoptosis” value in the experiment on tumor cell was “induces cell apoptosis at low concentrations”.

Consider `O=C(O)CCC(=O)O` [succinic acid, reference compound], for which, in [3] (100 μM, 10 h, HCT116), the “mitochondrial PKM2” value is given as “increased mitochondrial PKM2”. Besides, in the experiment with PKM2 succinylation, the PKM2 succinylation result is “increased PKM2 succinylation”.

With “epidermal growth factor: growth factor used to stimulate HCT116 cells”, the PKM2 mitochondrial translocation entry in experiment [3] is reported as “did not increase PKM2 mitochondrial translocation”.

With “insulin: hormone used to stimulate HCT116 cells”, the PKM2 mitochondrial translocation entry in experiment [3] is on record as “did not increase PKM2 mitochondrial translocation”.
